# Assay: Particle size of milled tacrolimus particles by laser particle size analyzer (Malvern 3000)
# Type: physicochemical
# Conditions: for D90 / D10 / D50 / D [3, 3] / D [4, 3]: Malvern 3000
# Procedure: The milling process is conducted under the water bath at the temperature of about 4 to 18° C. for decreasing high-released energy in case of the deactivation of the milled particles.
# Table 1 illustrates the statistically analyzed diameter size of the milled particles after different milling time, detected by laser particle size analyzer, Malven 3000. After milling for 90 mins, the D90 of the particles is decreased to a level of less than 400 nm. Furthermore, it was observed that preferred D90 of milled particles would be limited in the range of 100 nm to 800 nm. If D90 is less than 100 nm, the issue of particle aggregation cannot be prevented. If D90 is greater than 800 nm, the favorable effect is not significant.
smiles,measurement,setting,value
C=CC[C@@H]1/C=C(\C)C[C@H](C)C[C@H](OC)[C@H]2O[C@@](O)(C(=O)C(=O)N3CCCC[C@H]3C(=O)O[C@H](/C(C)=C/[C@@H]3CC[C@@H](O)[C@H](OC)C3)[C@H](C)[C@@H](O)CC1=O)[C@H](C)C[C@@H]2OC [tacrolimus],D90 of the particles,after milling for 90 mins,less than 400 nm
same,D90,milling time 0 min (unmilled),17.000 μm
same,D10,milling time 0 min,2.300 μm
same,D50,milling time 0 min,6.600 μm
same,"D [3, 3]",milling time 0 min,4.860 μm
same,"D [4, 3]",milling time 0 min,8.880 μm
same,D10,milling time 15 min,0.157 μm
same,D50,milling time 15 min,0.338 μm
same,D90,milling time 15 min,0.967 μm
same,"D [3, 3]",milling time 15 min,0.294 μm
same,"D [4, 3]",milling time 15 min,0.578 μm
same,D10,milling time 30 min,0.119 μm
same,D50,milling time 30 min,0.255 μm
same,D90,milling time 30 min,0.572 μm
same,"D [3, 3]",milling time 30 min,0.219 μm
same,"D [4, 3]",milling time 30 min,0.328 μm
same,D10,milling time 45 min,0.123 μm
same,D50,milling time 45 min,0.270 μm
same,D90,milling time 45 min,0.608 μm
same,"D [3, 3]",milling time 45 min,0.230 μm
same,"D [4, 3]",milling time 45 min,1.360 μm
same,D10,milling time 60 min,0.094 μm
same,D50,milling time 60 min,0.198 μm
same,D90,milling time 60 min,0.426 μm
same,"D [3, 3]",milling time 60 min,0.170 μm
same,"D [4, 3]",milling time 60 min,0.232 μm
same,D10,milling time 75 min,0.088 μm
same,D50,milling time 75 min,0.183 μm
same,D90,milling time 75 min,0.390 μm
same,"D [3, 3]",milling time 75 min,0.158 μm
same,"D [4, 3]",milling time 75 min,0.216 μm
same,D10,milling time 90 min,0.083 μm
same,D50,milling time 90 min,0.174 μm
same,D90,milling time 90 min,0.364 μm
same,"D [3, 3]",milling time 90 min,0.149 μm
same,"D [4, 3]",milling time 90 min,0.202 μm
